The OligoGym collection
HELM strings list units from the 5' end as sugar, base in round brackets, then linkage (d deoxyribose, r ribose, m 2'-O-methyl, p phosphodiester). Strings are as the collection lists them; they lack the last nucleoside at the 3' end of the tested compound. [moe] = 2'-O-(2-methoxyethyl) (MOE); [sp] = phosphorothioate linkage; [m5C] = 5-methylcytosine

Each substance was assayed against PRNP (assay: mouse, dose not given). Details: ASO.

Substance	3 h FOB score [score 0-7]
RNA1{[moe](T)[sp].[moe](G)p.[moe](T)p.[moe](G)p.[moe](A)[sp].d([m5C])[sp].d(A)[sp].d(A)[sp].d(T)[sp].d(A)[sp].d(T)[sp].d(T)[sp].d(T)[sp].d(A)[sp].d([m5C])[sp].[moe](T)p.[moe]([m5C])p.[moe](T)[sp].[moe](T)}$$$$ (last 3' nucleoside missing)	2.25
RNA1{[moe](T)[sp].[moe](T)p.[moe](T)p.[moe](G)p.[moe](A)[sp].d(T)[sp].d(T)[sp].d(T)[sp].d([m5C])[sp].d(A)[sp].d(A)[sp].d(G)[sp].d(T)[sp].d([m5C])[sp].d([m5C])[sp].[moe]([m5C])p.[moe](A)p.[moe](G)[sp].[moe](A)}$$$$ (last 3' nucleoside missing)	2.25
RNA1{[moe]([m5C])[sp].[moe](T)p.[moe]([m5C])p.[moe](T)p.[moe](A)p.[moe](T)p.d(G)[sp].d(T)[sp].d(T)[sp].d(T)[sp].d(T)[sp].d([m5C])[sp].d([m5C])[sp].d(A)[sp].d(G)[sp].d(T)[sp].[moe](G)p.[moe]([m5C])[sp].[moe]([m5C])}$$$$ (last 3' nucleoside missing)	2
RNA1{[moe](A)[sp].[moe]([m5C])p.[moe](T)p.[moe]([m5C])p.[moe](T)[sp].d(A)[sp].d(T)[sp].d(G)[sp].d(T)[sp].d(T)[sp].d(T)[sp].d(T)[sp].d([m5C])[sp].[moe]([m5C])p.[moe](A)p.[moe](G)[sp].[moe](T)}$$$$ (last 3' nucleoside missing)	4.5
RNA1{[moe]([m5C])[sp].[moe](T)p.[moe]([m5C])p.[moe](T)p.[moe](A)p.d(T)[sp].d(G)[sp].d(T)[sp].d(T)[sp].d(T)[sp].d(T)[sp].d([m5C])[sp].d([m5C])[sp].d(A)[sp].[moe](G)p.[moe](T)p.[moe](G)[sp].[moe]([m5C])}$$$$ (last 3' nucleoside missing)	0.25
RNA1{[moe](T)[sp].[moe]([m5C])p.[moe](T)p.[moe](T)p.[moe](T)[sp].d(T)[sp].d([m5C])[sp].d(T)[sp].d(T)[sp].d(T)[sp].d(G)[sp].d([m5C])[sp].d(A)[sp].d([m5C])[sp].d(A)[sp].[moe]([m5C])p.[moe](T)p.[moe](G)[sp].[moe](A)}$$$$ (last 3' nucleoside missing)	3
RNA1{[moe](G)[sp].[moe]([m5C])p.[moe](T)p.[moe](A)p.[moe](G)[sp].d(G)[sp].d(T)[sp].d(G)[sp].d(A)[sp].d([m5C])[sp].d(A)[sp].d(A)[sp].d(T)[sp].d(A)[sp].d(T)[sp].[moe]([m5C])p.[moe](A)p.[moe](A)[sp].[moe](A)}$$$$ (last 3' nucleoside missing)	0
RNA1{[moe]([m5C])[sp].[moe](T)p.[moe]([m5C])p.[moe](T)p.[moe](A)p.d(T)[sp].d(G)[sp].d(T)[sp].d(T)[sp].d(T)[sp].d(T)[sp].d([m5C])[sp].d([m5C])[sp].d(A)[sp].[moe](G)[sp].[moe](T)p.[moe](G)p.[moe]([m5C])}$$$$ (last 3' nucleoside missing)	1
RNA1{[moe](A)[sp].[moe](T)p.[moe](G)p.[moe]([m5C])p.[moe]([m5C])[sp].d(A)[sp].d([m5C])[sp].d(A)[sp].d(T)[sp].d(A)[sp].d(T)[sp].d(A)[sp].d(G)[sp].d(G)[sp].d(G)[sp].[moe](T)p.[moe]([m5C])p.[moe]([m5C])[sp].[moe](T)}$$$$ (last 3' nucleoside missing)	3
RNA1{[moe](A)[sp].[moe]([m5C])p.[moe](T)p.d([m5C])[sp].d(T)[sp].d(A)[sp].d(T)[sp].d(G)[sp].d(T)[sp].d(T)[sp].d(T)[sp].d(T)[sp].d([m5C])[sp].[moe]([m5C])p.[moe](A)p.[moe](G)p.[moe](T)p.[moe](G)[sp].[moe]([m5C])}$$$$ (last 3' nucleoside missing)	1.5
RNA1{[moe](G)[sp].[moe](T)p.[moe]([m5C])p.d(A)[sp].d(G)[sp].d(T)[sp].d(T)[sp].d(T)[sp].d(T)[sp].d(T)[sp].d([m5C])[sp].d([m5C])[sp].d([m5C])[sp].[moe]([m5C])p.[moe](A)p.[moe]([m5C])p.[moe](A)p.[moe](T)[sp].[moe](A)}$$$$ (last 3' nucleoside missing)	0
RNA1{[moe](T)[sp].[moe](G)p.[moe]([m5C])p.[moe]([m5C])p.[moe](A)[sp].d([m5C])[sp].d(A)[sp].d(T)[sp].d(A)[sp].d(T)[sp].d(A)[sp].d(G)[sp].d(G)[sp].d(G)[sp].d(T)[sp].[moe]([m5C])p.[moe]([m5C])p.[moe](T)[sp].[moe](T)}$$$$ (last 3' nucleoside missing)	3
RNA1{[moe](T)[sp].[moe](G)p.[moe](T)p.[moe]([m5C])p.[moe](A)[sp].d(G)[sp].d(T)[sp].d(T)[sp].d(T)[sp].d(T)[sp].d(T)[sp].d([m5C])[sp].d([m5C])[sp].d([m5C])[sp].d([m5C])[sp].[moe](A)p.[moe]([m5C])p.[moe](A)[sp].[moe](T)}$$$$ (last 3' nucleoside missing)	0
RNA1{[moe](G)[sp].[moe](T)p.[moe]([m5C])p.[moe](A)p.[moe](T)p.[moe](A)p.d(A)[sp].d(T)[sp].d(T)[sp].d(T)[sp].d(T)[sp].d([m5C])[sp].d(T)[sp].d(T)[sp].d(A)[sp].d(G)[sp].[moe]([m5C])p.[moe](T)[sp].[moe](A)}$$$$ (last 3' nucleoside missing)	2.5
RNA1{[moe]([m5C])[sp].[moe](T)p.[moe](T)p.[moe](T)p.[moe](T)[sp].d([m5C])[sp].d(T)[sp].d(T)[sp].d(T)[sp].d(G)[sp].d([m5C])[sp].d(A)[sp].d([m5C])[sp].d(A)[sp].d([m5C])[sp].[moe](T)p.[moe](G)p.[moe](A)[sp].[moe]([m5C])}$$$$ (last 3' nucleoside missing)	4
RNA1{[moe](G)[sp].[moe](T)p.[moe](G)p.[moe](T)p.[moe]([m5C])p.d(A)[sp].d(T)[sp].d(A)[sp].d(A)[sp].d(T)[sp].d(T)[sp].d(T)[sp].d(T)[sp].d([m5C])[sp].[moe](T)[sp].[moe](T)p.[moe](A)p.[moe](G)}$$$$ (last 3' nucleoside missing)	0
RNA1{[moe](G)[sp].[moe]([m5C])p.[moe](T)p.[moe](T)p.[moe](A)[sp].d([m5C])[sp].d(T)[sp].d([m5C])[sp].d(G)[sp].d(G)[sp].d([m5C])[sp].d(T)[sp].d(T)[sp].d(G)[sp].d(T)[sp].[moe](T)p.[moe]([m5C])p.[moe]([m5C])[sp].[moe](A)}$$$$ (last 3' nucleoside missing)	5.25
RNA1{[moe]([m5C])[sp].[moe](T)p.[moe](T)p.[moe](A)p.[moe]([m5C])[sp].d(T)[sp].d([m5C])[sp].d(G)[sp].d(G)[sp].d([m5C])[sp].d(T)[sp].d(T)[sp].d(G)[sp].d(T)[sp].d(T)[sp].[moe]([m5C])p.[moe]([m5C])p.[moe](A)[sp].[moe]([m5C])}$$$$ (last 3' nucleoside missing)	0
RNA1{[moe](A)[sp].[moe]([m5C])p.[moe](T)p.[moe]([m5C])p.[moe](T)p.[moe](A)p.d(T)[sp].d(G)[sp].d(T)[sp].d(T)[sp].d(T)[sp].d(T)[sp].d([m5C])[sp].d([m5C])[sp].d(A)[sp].d(G)[sp].[moe](T)p.[moe](G)[sp].[moe]([m5C])}$$$$ (last 3' nucleoside missing)	1.25
RNA1{[moe](A)[sp].[moe]([m5C])p.[moe](T)p.[moe]([m5C])p.[moe](T)p.d(A)[sp].d(T)[sp].d(G)[sp].d(T)[sp].d(T)[sp].d(T)[sp].d(T)[sp].d([m5C])[sp].d([m5C])[sp].[moe](A)[sp].[moe](G)p.[moe](T)p.[moe](G)}$$$$ (last 3' nucleoside missing)	2.25
RNA1{[moe](G)[sp].[moe]([m5C])p.[moe]([m5C])p.[moe](A)p.[moe]([m5C])[sp].d(A)[sp].d(T)[sp].d(A)[sp].d(T)[sp].d(A)[sp].d(G)[sp].d(G)[sp].d(G)[sp].d(T)[sp].d([m5C])[sp].[moe]([m5C])p.[moe](T)p.[moe](T)[sp].[moe](T)}$$$$ (last 3' nucleoside missing)	1.5
RNA1{[moe]([m5C])[sp].[moe](G)[sp].[moe](T)p.[moe]([m5C])p.[moe]([m5C])p.[moe](A)p.[moe](T)p.d(T)[sp].d(T)[sp].d(T)[sp].d([m5C])[sp].d(T)[sp].d(G)[sp].d(T)[sp].d(G)[sp].d([m5C])[sp].d(T)[sp].[moe](T)p.[moe](T)}$$$$ (last 3' nucleoside missing)	5.5
RNA1{[moe](T)[sp].[moe](G)p.[moe](G)p.[moe](G)p.[moe](A)[sp].d(G)[sp].d(T)[sp].d(A)[sp].d(T)[sp].d([m5C])[sp].d(A)[sp].d(A)[sp].d(T)[sp].d(T)[sp].d(T)[sp].[moe](A)p.[moe](A)p.[moe](G)[sp].[moe]([m5C])}$$$$ (last 3' nucleoside missing)	0
RNA1{[moe]([m5C])[sp].[moe](T)[sp].[moe](A)p.[moe](T)p.[moe](G)p.[moe](T)p.[moe](T)p.d(T)[sp].d(T)[sp].d([m5C])[sp].d([m5C])[sp].d(A)[sp].d(G)[sp].d(T)[sp].d(G)[sp].d([m5C])[sp].d([m5C])[sp].[moe]([m5C])p.[moe](A)}$$$$ (last 3' nucleoside missing)	4.75
RNA1{[moe](T)[sp].[moe]([m5C])p.[moe](A)p.[moe](G)p.[moe](T)[sp].d(G)[sp].d(T)[sp].d(T)[sp].d(G)[sp].d(T)[sp].d(G)[sp].d(A)[sp].d([m5C])[sp].d(A)[sp].d(A)[sp].[moe](T)p.[moe](A)p.[moe](T)[sp].[moe](T)}$$$$ (last 3' nucleoside missing)	4.25
RNA1{[moe](A)[sp].[moe]([m5C])p.[moe](T)p.[moe](G)p.[moe](A)[sp].d(A)[sp].d(T)[sp].d(T)[sp].d(T)[sp].d(T)[sp].d([m5C])[sp].d(T)[sp].d([m5C])[sp].d(T)[sp].d([m5C])[sp].[moe]([m5C])p.[moe]([m5C])p.[moe](A)[sp].[moe](G)}$$$$ (last 3' nucleoside missing)	0
